Experiments:
HCT-116 cells [1] = experiment: Antibiotics' uptake by the cells, LC-MS/MS; conditions: for Concentration of CFT, Lysate / Concentration of CFT, Supernatant: CFT 100 µg/ml alone or + 5-FU 8 µM
Method: (§1) This step was repeated three times and cell homogenate were vortexed at high-speed prior extraction. 40 µl from each supernatant and cell suspension were combined with 200 µl of internal standard working solution prepared in ice-cold methanol. Samples were then centrifuged and 100 µl of the supernatant were diluted with 400 µl water in glass vials prior analysis with LC-/MS/MS.

DLD-1 cells [2] = experiment: Antibiotics' uptake by the cells, LC-MS/MS; conditions: for Concentration of CFT, Lysate / Concentration of CFT, Supernatant: CFT 100 µg/ml alone or + 5-FU 16 µM
Method: as §1

Caco-2 cells = experiment: MTT metabolic activity assay; format: cell-based, human; conditions: 24 h post-treatment, 5-Fluorouracil 4µM
Method: (§2) Cells were plated at 2^∗104cells/ml in 96-well plates and incubated overnight. The following day, cells were treated in triplicate with Ceftazdime or 5-fluorouracil for 24-48 h, depending on the cell line used. Metabolic activity of the cells was studied using the MTT assay that measures the ability of metabolically active cells to convert tetrazolium salt into a blue formazan product, the absorbance of which is recorded at 540 nm by an ELISA reader (Bio-Rad iMark Microplate Reader).

HCT-116 cells [3] = experiment: Caspase-3/7 activity assay; format: cell-based, human; conditions: combined with 5-FU 8 µM, 48 and 72h, CFT 100 µg/ml, CFP 50 µg/ml
Method: (§3) Caspase-3/7 activity was measured 48 h and 72 h post-treatment according to the manufacturer's protocol (Caspase-Glo-3/7 Assay, Promega Corp, Madison, WI, USA). Briefly, equal volume from treated cells and caspase-3/7 mixture were incubated at room temperature for 3 h and the luminescence was measured by a microplate reader.

HCT-116 cells [4] = experiment: Xenograft model of colon cancer cells, tumor growth; format: in vivo, NOD/SCID mice
Method: Twelve NOD/SCID mice were randomly distributed into two groups (6 mice/group). HCT-116 colon cancer cells (3.5 million) suspended in sterile physiological solution (0.9% NaCl) were injected subcutaneously into the flank of 4 to 6-week old mice. Animals were kept in a light- and temperature-controlled environment and provided with food and water ad libitum. The tumor size was monitored and determined three times per week using a sterile Vernier caliper. Tumor volume was calculated by the following formula: Volume=π/6^∗(length × width × height). […] Growth delay was assessed by comparing the size of tumors in treated animals to those of control animals. Ethical approval was obtained before the beginning of the experiments.

RAW 264.7 cells = experiment: MTT metabolic activity assay on macrophages; format: cell-based, murine
Method: as §2

DLD-1 cells [5] = experiment: Caspase-3/7 activity assay; format: cell-based, human; conditions: CFT 100 µg/ml alone, vs. control untreated cells
Method: as §3
as §3, with “DLD-1 cells were treated with CFT (100 µg/ml) or 5-Fluorouracil (16 µM). Caspase-3/7” for “Caspase-3/7”, “caspase 3/7” for “caspase-3/7”

DLD-1 cells [6] = experiment: MTT metabolic activity assay; format: cell-based, human
Method: MTT assay was used to assess the proliferation rate of HCT-116 and DLD-1 cells. In this assay the ability of metabolically active cells to convert tetrazolium salt into a blue formazan product is measured. The absorption of the dissolved formazan was quantified at 540 nm by an ELISA reader (Bio-Rad iMark Microplate Reader).
as §2, with “The following day, cells were treated in triplicate with Ceftazdime or 5-fluorouracil for 24-48 h, depending on the cell line used.” left out

[7] = Stability in media, LC-MS/MS; format: physicochemical; conditions: antibiotic alone (CFP 50 µg/mL, CFT 100 µg/mL)
Method: B) CFT (100 µg/ml) ± 5-FU (8 µM and 16 µM). P value (a) (between antibiotic alone and 5-FU (8 µM)); P value (b) (between antibiotic alone and 5-FU (16 µM)), n = 3.

HCT-116 cells [8] = experiment: MTT metabolic activity assay; format: cell-based, human; conditions: 48 h post-treatment, CFT 100 µg/mL, CFP 50 µg/mL combined with 5-FU
[9] = three weeks post-treatment, 10mg/mouse intraperitoneal three times per week

For CC(C)(O/N=C(\C(=O)N[C@@H]1C(=O)N2C(C(=O)[O-])=C(C[n+]3ccccc3)CS[C@H]12)c1csc(N)n1)C(=O)O [CFT, (6R,7R)-7-[[(2Z)-2-(2-amino-1,3-thiazol-4-yl)-2-(2-carboxypropan-2-yloxyimino)acetyl]amino]-8-oxo-3-(pyridin-1-ium-1-ylmethyl)-5-thia-1-azabicyclo[4.2.0]oct-2-ene-2-carboxylate], the “Concentration of CFT, Lysate” value (HCT-116 cells [1]; HCT-116 cells, 2 h) was 0.047 ± 0.003, the “Concentration of CFT, Supernatant” value (HCT-116 cells [1]; HCT-116 cells, 2 h) was 96.900 ± 3.818 and the “Concentration of CFT, Lysate” value (HCT-116 cells [1]; HCT-116 cells, 4 h) was 0.066 ± 0.012. For the same compound, the “Concentration of CFT, Supernatant” value (HCT-116 cells [1]; HCT-116 cells, 4 h) was 105.000 ± 4.168, the “Concentration of CFT, Lysate” value (HCT-116 cells [1]; HCT-116 cells, 6 h) was 0.056 ± 0.001 and the “Concentration of CFT, Supernatant” value (HCT-116 cells [1]; HCT-116 cells, 6 h) was 96.750 ± 8.697. For the same compound, the “Concentration of CFT, Lysate” value (HCT-116 cells [1]; HCT-116 cells, 8 h) was 0.053 ± 0.010, the “Concentration of CFT, Supernatant” value (HCT-116 cells [1]; HCT-116 cells, 8 h) was 88.900 ± 8.326 and the “uptake of CFT” value (HCT-116 cells [1]; HCT-116 cells, up to 8 h, CFT 100 µg/ml) was 0.047-0.066%. The “average uptake in HCT-116 cells compared to DLD-1 cells” value (HCT-116 cells [1]; up to 8h) was 2 folds, the “uptake in HCT-116 cells compared to DLD-1 cells” value (HCT-116 cells [1]; up to 8 h, CFT 100 µg/ml) was ~2.5 fold and the “Concentration of CFT, Lysate” value (DLD-1 cells [2]; 2 h) was 0.024 ± 0.003. The “Concentration of CFT, Supernatant” value (DLD-1 cells [2]; 2 h) was 100.000 ± 2.970, the “Concentration of CFT, Lysate” value (DLD-1 cells [2]; 4 h) was 0.026 ± 0.002 and the “Concentration of CFT, Supernatant” value (DLD-1 cells [2]; 4 h) was 97.073 ± 5.728. The “Concentration of CFT, Lysate” value (DLD-1 cells [2]; 6 h) was 0.033 ± 0.003, the “Concentration of CFT, Supernatant” value (DLD-1 cells [2]; 6 h) was 91.335 ± 7.637 and the “Concentration of CFT, Lysate” value (DLD-1 cells [2]; 8 h) was 0.032 ± 0.001. The “Concentration of CFT, Supernatant” value (DLD-1 cells [2]; 8 h) was 98.126 ± 5.940, the “average uptake by the cells” value (DLD-1 cells [2]; up to 8h) was “around 0.02%” and the “uptake of CFT” value (DLD-1 cells [2]; up to 8 h, CFT 100 µg/ml) was 0.019-0.025%. For the same compound, the “inhibition of proliferation (metabolic activity)” value (Caco-2 cells) was 30%, the “effect on 5-FU-induced apoptosis (caspase 3/7, in words)” value (HCT-116 cells [3]) was “antagonized 5-FU-induced apoptosis” and the “tumor growth after stopping treatment (in words)” value (HCT-116 cells [4]; mice exposed for three weeks, then treatment stopped) was “the tumor did not grow further”. The “inhibition of tumor volume vs. control group” value (HCT-116 cells [4]; [9]) was 95%, the “tumor size (volume of xenografts)” value (HCT-116 cells [4]; [9]) was 45.3 mm^3 and the “inhibition of tumor volume, already established tumors” value (HCT-116 cells [4]; treatment started when tumor volume was around 990 mm^3, vs. control untreated mice) was “around 50%”. For the same compound, the “metabolic activity of macrophages (in words)” value (RAW 264.7 cells) was “restored to control untreated cells”, the “increase of the activity of caspase 3/7” value (DLD-1 cells [5]; 48 h) was 20% and the “increase of the activity of caspase 3/7” value (DLD-1 cells [5]; 72 h) was 32.1%. The “inhibitory effect vs. control untreated cells (metabolic activity)” value (DLD-1 cells [6]; 48 h post-treatment, 5-Fluorouracil 16µM) was 18%, the “metabolic activity (in words)” value (DLD-1 cells [6]; CFT alone (100 µg/ml), 72 h post-treatment) was “significant decrease in the metabolic activity” and the “Stability test, level in media” value ([7]; 2h in media) was 104.4 ± 2.5. For the same compound, the “Stability test, level in media” value ([7]; 8h in media) was 103.4 ± 10.8 and the “effect on 5-FU's effect on metabolic activity (in words)” value (HCT-116 cells [8]) was “antagonized 5-FU's effect”.
